Test results reported in PMC11550998, “Novel 5-HT7 receptor antagonists modulate intestinal immune responses and reduce severity of colitis” (American Journal of Physiology - Gastrointestinal and Liver …, 2024).
≈ marks a conversion by molar mass, not a printed value. Like-named read-outs stand apart in the source and are kept apart here.

Tests used:
[1] = Aqueous solubility (pH 7.4) assay, Millipore MultiScreen filter system; assay type: physicochemical; conditions: read-out: Sol (aqueous solubility)
Method: Compounds were assessed for their solubility at pH 7.4 using the commercially available Millipore MultiScreen Solubility filter system (Millipore, Billerica, MA). Analysis was performed by liquid chromatography-tandem mass spectrometry (LC-MS/MS).

CYP2D6 = CYP2D6 (Homo sapiens, UniProt P10635); assay: Cytochrome P450 inhibition assay, 2D6 (fluorescent substrate); assay type: in vitro ADME; conditions: expressed enzyme
Method: Compounds were assessed for their ability to inhibit human cytochrome P450 3A4 using testosterone as a substrate and LC-MS/MS analysis, whereas the 2D6 and 2C9 assays used fluorescent substrates and EnVision plate reader analysis. Expressed enzymes were used to minimize nonspecific binding and membrane partitioning issues ([15]).

[2] = target: T1, h5-HT7D expressed in U2OS cells (Homo sapiens, UniProt P34969); assay: 5-HT7 functional assay (cAMP Hunter eXpress GPCR luminescence assay); assay type: cell-based; conditions: antagonist, cAMP production stimulated by 150 nM 5-HT (EC80), Cheng-Prusoff
T1 construct: host or cells: U2OS
Method: The potencies of MC-170073, […], and MC-230079 as 5-HT7 antagonists were determined using the cAMP Hunter eXpress GPCR luminescence assay (DiscoveRx, 95-0163E3) and the manufacturer’s protocol. Cryopreserved U2OS cells expressing h5-HT7D were seeded into 96-well white-walled clear bottom tissue culture-treated plates (31,250 cells/well) and were allowed to recover for 16 h at 37°C in a humidified incubator with 5% CO2. The media was aspirated and replaced with 30-µL cell assay buffer (CAB). Cells were preincubated at 37°C for 15 min with 7.5 µL of 6× final concentration of 5 to 10 concentrations in triplicate of test compounds in CAB. Cells were then stimulated for 30 min at 37°C with 7.5 µL of 900 nM of the full agonist 5-HT in cell assay buffer (final concentration 150 nM; an EC80). cAMP levels/well were determined at room temperature by adding 15 µL of cAMP antibody and 60 µL of cAMP working detection solution, followed by the addition of 60 µL of solution A after 1 h incubation. Luminescence was read 16 h later with an EnVision multilabel plate reader. The IC50 of test compounds was calculated using GraphPad’s Prism 5 (GraphPad Software, La Jolla, CA) nonlinear curve-fitting program. The equilibrium dissociation constant for the competitive antagonists (KB) values was determined using the Cheng-Prusoff equation.

[3] = target: 5-HT1A, 5-HT1B, 5-HT1D, 5-HT1E, 5-HT2A, 5-HT2B, 5-HT2C, 5-HT3, 5-HT4, 5-HT5A, and 5-HT6; assay: Off-target assessment at other 5-HT receptors (PDSP); assay type: binding; conditions: 1B, 1D, 1E, 2A, 2B, 2C, 3, 4, 5A, 6
Method: In vitro assessments of MC-170073, MC-20078, and MC-230079 activity at the following targets were determined using the assay systems available through the Psychoactive Drug Screening Program (PDSP). Detailed protocols for each assay are available at https://pdsp.unc.edu/pdspweb/?site=assays. Receptors 5-HT1A, 5-HT1B, 5-HT1D, 5-HT1E, 5-HT2A, 5-HT2B, 5-HT2C, 5-HT3, 5-HT5A, 5-HT6, 5-HT7, α1A, α1B, α1D, α2A, α2B, α2C, benzodiazepine, β1, β2, β3, GABA-A, H1, H2, H3, H4, M1, M2, M3, M4, M5, δ-opioid, κ-opioid, and µ-opioid and transporters dopamine, norepinephrine, and serotonin were evaluated.

[4] = Microsomal stability assay, human liver microsomes; assay type: in vitro ADME; conditions: 37°C, NADPH regenerating system, read-out: T1/2 HLM
Method: Test compounds were assessed for microsomal stability by incubating at 37°C in the presence of mouse or human liver microsomes and an NADPH regenerating system as described by Yang et al. ([16]). Microsomal protein content was adjusted to ensure accurate rates of substrate consumption. Analysis was performed by LC-MS/MS analysis.

[5] = target: T2, human 5HT7A-HEK membranes (Homo sapiens, UniProt P34969); assay: 5-HT7 binding assay ([3H]LSD displacement); conditions: Cheng-Prusoff
T2 construct: expressed in transfected cells; host or cells: HEK cells (membranes)
Method: Solutions of test compounds were a 10 mM stock in dimethyl sulfoxide (DMSO) and then further diluted 1:200 in assay buffer [50 mM tris(hydroxymethyl)aminomethane (TRIS), pH 7.5, 10 mM MgCl2, 0.5 mM ethylenediaminetetraacetic acid (EDTA)] to 50 µM (0.5% DMSO). Ten dilutions of the test compound in 0.5% DMSO/assay buffer were prepared in a twofold serial dilution to yield final compound concentrations ranging from 10 µM to 19.5 nM in the assay. In a 96-well polypropylene plate, 50 µL of assay buffer was added to all wells, and then 50 µL of 0.5% DMSO/assay buffer or 50 µM chlorpromazine or serial dilutions of test compounds were added to selected wells. To all wells, 100 µL of 0.2 mg/mL human 5HT7A-HEK membranes and 50 µL of 5 nM [^3H]lysergic acid diethylamide (LSD) in assay buffer were added. Reactions were incubated at room temperature for 1.5 h and harvested by rapid filtration onto 0.3% polyethyleneimine-treated GF/B filter plates using a Brandel harvester. […] Filter plates were dried overnight, scintillant was added, and the radioactivity retained on the filters was counted on a TopCount scintillation counter (PerkinElmer). Half maximal inhibitory concentration (IC50) and inhibitory constant (Ki) of test compounds were calculated using GraphPad’s Prism 5 nonlinear sigmoidal curve-fitting program. […] Ki values were calculated using the Cheng-Prusoff equation.

[6] = Administration of antagonist in the absence of DSS; assay type: in vivo, mice; conditions: Supplemental Fig. S2
[7] = pH 7.4, aqueous buffer, kinetic from dmso stock

CYP2D6, sequence (P10635 whole entry): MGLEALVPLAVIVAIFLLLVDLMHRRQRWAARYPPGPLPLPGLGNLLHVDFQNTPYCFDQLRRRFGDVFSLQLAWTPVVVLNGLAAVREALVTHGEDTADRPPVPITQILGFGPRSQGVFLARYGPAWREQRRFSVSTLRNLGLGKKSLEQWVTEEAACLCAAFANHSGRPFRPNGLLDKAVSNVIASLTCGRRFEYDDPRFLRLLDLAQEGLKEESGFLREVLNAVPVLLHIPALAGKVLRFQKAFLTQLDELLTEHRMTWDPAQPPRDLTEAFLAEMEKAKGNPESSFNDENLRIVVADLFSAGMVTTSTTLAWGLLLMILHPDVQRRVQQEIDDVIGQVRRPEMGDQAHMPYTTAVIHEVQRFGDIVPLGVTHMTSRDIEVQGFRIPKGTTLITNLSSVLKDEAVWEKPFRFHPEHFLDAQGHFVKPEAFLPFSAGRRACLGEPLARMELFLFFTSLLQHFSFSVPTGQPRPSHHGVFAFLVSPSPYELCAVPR
T2 sequence (P34969 1-445 isoform P34969-2): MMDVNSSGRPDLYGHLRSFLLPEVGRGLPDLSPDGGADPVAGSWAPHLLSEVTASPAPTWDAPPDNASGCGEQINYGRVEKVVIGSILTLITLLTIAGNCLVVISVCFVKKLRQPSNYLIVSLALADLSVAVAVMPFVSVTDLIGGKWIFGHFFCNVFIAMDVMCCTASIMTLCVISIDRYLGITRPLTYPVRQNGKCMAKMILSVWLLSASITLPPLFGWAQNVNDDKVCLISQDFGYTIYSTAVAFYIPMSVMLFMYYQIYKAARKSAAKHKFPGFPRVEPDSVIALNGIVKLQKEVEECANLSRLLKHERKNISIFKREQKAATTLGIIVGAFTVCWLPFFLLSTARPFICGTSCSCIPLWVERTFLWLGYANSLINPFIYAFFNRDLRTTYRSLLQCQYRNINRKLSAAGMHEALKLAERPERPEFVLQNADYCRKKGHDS
T1 sequence (P34969 whole entry): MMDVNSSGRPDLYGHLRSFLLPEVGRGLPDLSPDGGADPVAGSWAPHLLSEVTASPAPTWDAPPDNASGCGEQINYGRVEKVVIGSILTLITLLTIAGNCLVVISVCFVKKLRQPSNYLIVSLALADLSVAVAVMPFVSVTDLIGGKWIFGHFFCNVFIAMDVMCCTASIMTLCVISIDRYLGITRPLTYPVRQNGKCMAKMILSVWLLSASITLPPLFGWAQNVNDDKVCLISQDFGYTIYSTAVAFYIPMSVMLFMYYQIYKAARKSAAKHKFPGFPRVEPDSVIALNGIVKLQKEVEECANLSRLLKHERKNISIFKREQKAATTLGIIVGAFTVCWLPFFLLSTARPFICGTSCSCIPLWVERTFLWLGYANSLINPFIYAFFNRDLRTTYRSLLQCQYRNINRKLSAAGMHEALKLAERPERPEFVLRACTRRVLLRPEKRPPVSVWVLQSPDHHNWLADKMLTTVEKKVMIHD

Row | solubility [1, 7] [µM] | solubility [1] [µM] | IC50 (CYP2D6) [nM] | Kb [2] [nM] | Ki [3] [nM] | half-life [4] [h] | Ki [5] [nM] | SMILES | effect on body weight change, histology, or proinflammatory cytokine production [6]
1 | 200 (≈ 69.3 µg/mL) | 168 (≈ 58.2 µg/mL) | > 10000 | 18 | > 10000 | > 1 | 89 | CCC1(CC)CC(CCN2CCN(c3ccc(O)cc3)CC2)OC1=O (stereo not drawn) [MC-170073] | no significant effect
2 | 200 (≈ 69.3 µg/mL) |  | > 10000 | 21 | > 10000 | 1 | 106 | CCC1(CC)C[C@@H](CCN2CCN(c3ccc(O)cc3)CC2)OC1=O [MC-230078] | no significant effect
